Measured values from patent publication US20150141342A1, “BLOOD BORNE miRNA SIGNATURE FOR THE ACCURATE DIAGNOSIS OF PANCREATIC DUCTAL ADENOCARCINOMA” (Indiana University Research and Technology Corp., priority 2013, published 2015).

Key:
PANC-1 cells = assay: Matrigel transwell invasion assay, PANC-1; format: cell-based, human; settings: PANC-1 transfected with miR-10b precursor, erlotinib 2 μM; for miR-10b's effects on combined EGF-TGF-β1 actions on invasion: 1 nM EGF + 0.5 nM TGF-β1, 20 h, SB505124 10 μM
Description: (§1) Invasion and Migration Assays. miR-10b precursor and precursor control transfected cells (5×104) were plated in Matrigel pre-coated transwell chambers (BD Biosciences, San Jose, Calif.) and assays performed as previously reported. UO126 (1 μM) were from Alexis Biochemicals (San Diego, Calif.). Erlotinib (2 μM; Genentech, Inc., South San Francisco, Calif.), and LY294002 (10 μM; Calbiochem, San Diego, Calif.), were added to SF in the lower chamber, in the absence or presence of 1 nM EGF and/or 0.5 nM TGF-β1. Wound healing assays were performed as previously reported. Briefly, 24 hours after cell transfection with pre-miR-10b oligonucleotides, cells were serum starved overnight, and the monolayer was scratched with a 200 μL pipette tip generating two parallel wounds. Cells were then rinsed twice with HBSS and incubated for 24 h in SF media in the absence or presence of 1 nM EGF, 0.5 nM TGF-β1, or their combination, and migration was calculated as the percent change in the wound area.

COLO-357 cells = assay: Matrigel transwell invasion assay, COLO-357; format: cell-based, human; settings: COLO-357 transfected with miR-10b precursor, erlotinib 2 μM; for miR-10b's effects on combined EGF-TGF-β1 actions on invasion: 1 nM EGF + 0.5 nM TGF-β1, 20 h, SB505124 10 μM
Description: as §1

[1] = 1 nM EGF, 20 h, LY294002 10 μM, UO126 1 μM

| SMILES | miR-10b's effects on combined EGF-TGF-β1 actions on invasion (PANC-1 cells) | miR-10b's effects on combined EGF-TGF-β1 actions on invasion (COLO-357 cells) | EGF-induced invasion in the presence of miR-10b (PANC-1 cells; [1]) | EGF-induced invasion in the presence of miR-10b (COLO-357 cells; [1]) |
| --- | --- | --- | --- | --- |
| Cc1cccc(-c2[nH]c(C(C)(C)C)nc2-c2ccc3c(c2)OCO3)n1 [SB505124] | markedly attenuated | markedly attenuated |  |  |
| C#Cc1cccc(Nc2ncnc3cc(OCCOC)c(OCCOC)cc23)c1 [erlotinib] | markedly attenuated | markedly attenuated | completely blocked | completely blocked |
